# Test system: established adjuvant-induced arthritis in rats
# Test: Established adjuvant-induced arthritis in rats (therapeutic, paw volume)
# Format: in vivo, Charles River Lewis male rats
# Settings: Rattus norvegicus, po, established arthritis, 7 daily doses, ED50% decrease from control paw volume, Tables I-III, read-out: Adjuvant Arthritis (ED50%)
row,Structure (SMILES),ED50 [mg/kg]
1,"[O-][S+](CC(F)(F)F)c1nc(-c2ccccc2)c(-c2ccccc2)[nH]1 (centres unmarked) [Example 2, 4,5-Diphenyl-2-(2,2,2-trifluoroethylsulfinyl)imidazole]",48
2,"O=S(=O)(CC(F)(F)F)c1nc(-c2ccccc2)c(-c2ccccc2)[nH]1 [Example 3, 4,5-Diphenyl-2-(2,2,2-trifluoroethylsulfonyl)imidazole]",12
3,"FC(F)(F)CSc1nc(-c2ccc(Cl)cc2)c(-c2ccc(Cl)cc2)[nH]1 [Example 7, 4,5-bis(4-Chlorophenyl)-2-(2,2,2-trifluoroethylthio)imidazole]",5
4,"[O-][S+](CC(F)(F)F)c1nc(-c2ccc(Cl)cc2)c(-c2ccc(Cl)cc2)[nH]1 (centres unmarked) [Example 8, 4,5-bis(4-chlorophenyl)-2-(2,2,2-trifluoroethylsulfinyl)imidazole]",3
5,"O=S(=O)(CC(F)(F)F)c1nc(-c2ccc(Cl)cc2)c(-c2ccc(Cl)cc2)[nH]1 [Example 9, 4,5-bis(4-Chlorophenyl)-2-(2,2,2-trifluoroethylsulfonyl)imidazole]",4.5
6,"CCSc1nc(-c2ccc(OC)cc2)c(-c2ccc(OC)cc2)[nH]1 [Example 10, 2-Ethylthio-4,5-bis(4-methoxyphenyl)imidazole]",4.7
7,"C=CCSc1nc(-c2ccc(OC)cc2)c(-c2ccc(OC)cc2)[nH]1 [Example 11, 2-Allylthio-4,5-bis(4-methoxyphenyl)imidazole]",22
8,"CC[S+]([O-])c1nc(-c2ccc(OC)cc2)c(-c2ccc(OC)cc2)[nH]1 (centres unmarked) [Example 13, 2-Ethylsulfinyl-4,5-bis(4-methoxyphenyl)imidazole]",10
9,"CCS(=O)(=O)c1nc(-c2ccc(OC)cc2)c(-c2ccc(OC)cc2)[nH]1 [Example 14, 2-Ethylsulfonyl-4,5-bis(4-methoxyphenyl)imidazole]",5.2
10,"COc1ccc(-c2nc(SC)[nH]c2-c2ccc(OC)cc2)cc1 [Example 15, 4,5-bis(4-Methoxyphenyl)-2-methylthioimidazole]",4.4
11,"COc1ccc(-c2nc(SCC(C)=O)[nH]c2-c2ccc(OC)cc2)cc1 [Example 16, 2-Acetonylthio-4,5-bis(4-methoxyphenyl)imidazole]",9.4
12,"CSc1nc(-c2ccc(Cl)cc2)c(-c2ccc(Cl)cc2)[nH]1 [Example 26, 4,5-bis(4-chlorophenyl)-2-methylthioimidazole]",3
13,CCCSc1nc(-c2ccc(OC)cc2)c(-c2ccc(OC)cc2)[nH]1 [Example 27],9
14,CSc1nc(-c2ccc(F)cc2)c(-c2ccc(F)cc2)[nH]1 [Example 28],3.5
15,COc1ccc(-c2nc(SC(F)F)[nH]c2-c2ccc(OC)cc2)cc1 [Example 29],1.8
16,FC(F)Sc1nc(-c2ccccc2)c(-c2ccccc2)[nH]1 [Example 30],21
17,FC(F)Sc1nc(-c2ccc(Cl)cc2)c(-c2ccc(Cl)cc2)[nH]1 [Example 31],0.35
18,Fc1ccc(-c2nc(SC(F)F)[nH]c2-c2ccc(F)cc2)cc1 [Example 32],0.42
19,CSc1nc(-c2ccc(Cl)cc2)c(-c2ccc(F)cc2)[nH]1 [Example 33],3.8
20,CSc1nc(-c2ccc(C(F)(F)F)cc2)c(-c2ccccc2)[nH]1 [Example 34],20
21,CSc1nc(-c2ccc(F)cc2)c(-c2ccc(C(F)(F)F)cc2)[nH]1 [Example 35],17
22,CSc1nc(-c2ccc(Cl)cc2)c(-c2ccc(C(F)(F)F)cc2)[nH]1 [Example 36],3.6
23,CSc1nc(-c2ccc3c(c2)OCO3)c(-c2ccc3c(c2)OCO3)[nH]1 [Example 37],20

row,Structure (SMILES),ED50 [mg/kg]
1,COc1ccc(-c2nc(SC(F)(F)C(F)F)[nH]c2-c2ccc(OC)cc2)cc1 [Example 38],4.2
2,Fc1ccc(-c2nc(SC(F)(F)C(F)F)[nH]c2-c2ccc(F)cc2)cc1 [Example 40],0.075
3,Fc1ccc(-c2[nH]c(SC(F)(F)C(F)F)nc2-c2ccc(Cl)cc2)cc1 [Example 42],0.18
4,Cc1ccc(-c2nc(SC(F)(F)C(F)F)[nH]c2-c2ccc(C)cc2)cc1 [Example 43],18
5,COc1ccc(-c2nc(SC(F)(F)C(F)F)[nH]c2-c2ccccc2)cc1 [Example 44],20
6,FC(F)C(F)(F)Sc1nc(-c2ccc(Cl)cc2)c(-c2ccccc2)[nH]1 [Example 45],0.3
7,FC(F)C(F)(F)Sc1nc(-c2ccc3c(c2)OCO3)c(-c2ccc3c(c2)OCO3)[nH]1 [Example 46],10
8,FC(F)C(F)(F)Sc1nc(-c2ccc(C(F)(F)F)cc2)c(-c2ccccc2)[nH]1 [Example 47],4.5
9,Fc1ccc(-c2nc(SC(F)(F)C(F)F)[nH]c2-c2ccc(C(F)(F)F)cc2)cc1 [Example 48],1.5
10,Fc1ccc(-c2nc(SC(F)(F)C(F)F)[nH]c2-c2ccccc2)cc1 [Example 49],0.2
11,FC(F)C(F)(F)Sc1nc(-c2ccccc2Cl)c(-c2cccc(Cl)c2)[nH]1 [Example 50],1.2
12,CN(C)c1ccc(-c2nc(SC(F)(F)C(F)F)[nH]c2-c2ccccc2)cc1 [Example 53],2.5
13,C=CC[S+]([O-])c1nc(-c2ccc(OC)cc2)c(-c2ccc(OC)cc2)[nH]1 (centres unmarked) [Example 54],11
14,C=CCS(=O)(=O)c1nc(-c2ccc(OC)cc2)c(-c2ccc(OC)cc2)[nH]1 [Example 55],11
15,COc1ccc(-c2nc([S+](C)[O-])[nH]c2-c2ccc(OC)cc2)cc1 (centres unmarked) [Example 56],6.2
16,COc1ccc(-c2nc(S(C)(=O)=O)[nH]c2-c2ccc(OC)cc2)cc1 [Example 57],6.4
17,C[S+]([O-])c1nc(-c2ccc(Cl)cc2)c(-c2ccc(Cl)cc2)[nH]1 (centres unmarked) [Example 59],2.3
18,CCC[S+]([O-])c1nc(-c2ccc(OC)cc2)c(-c2ccc(OC)cc2)[nH]1 (centres unmarked) [Example 61],13
19,CCCS(=O)(=O)c1nc(-c2ccc(OC)cc2)c(-c2ccc(OC)cc2)[nH]1 [Example 62],9
20,COc1ccc(-c2nc(S(=O)(=O)C(C)C)[nH]c2-c2ccc(OC)cc2)cc1 [Example 63],30
21,[O-][S+](c1nc(-c2ccccc2)c(-c2ccccc2)[nH]1)C(F)(F)C(F)F (centres unmarked) [Example 66],0.18
22,CS(=O)(=O)c1nc(-c2ccc(Cl)cc2)c(-c2ccc(Cl)cc2)[nH]1 [Example 67],2
23,[O-][S+](c1nc(-c2ccc(Cl)cc2)c(-c2ccc(Cl)cc2)[nH]1)C(F)(F)C(F)F (centres unmarked) [Example 68],0.2

row,Structure (SMILES),ED50 [mg/kg]
1,"O=S(=O)(c1nc(-c2ccc(Cl)cc2)c(-c2ccc(Cl)cc2)[nH]1)C(F)(F)C(F)F [Example 69, 4,5-bis(4-chlorophenyl)-2-(1,1,2,2-tetrafluoroethylsulfonyl)imidazole]",0.2
2,O=S(=O)(CC(F)(F)F)c1nc(-c2ccc(F)cc2)c(-c2ccc(F)cc2)[nH]1 [Example 70],3.5
3,CS(=O)(=O)c1nc(-c2ccc(F)cc2)c(-c2ccc(F)cc2)[nH]1 [Example 72],4.5
4,O=S(=O)(c1nc(-c2ccccc2)c(-c2ccccc2)[nH]1)C(F)(F)C(F)Cl (centres unmarked) [Example 73],0.25
5,O=S(=O)(c1nc(-c2ccccc2)c(-c2ccccc2)[nH]1)C(F)F [Example 75],0.35
6,O=S(=O)(c1nc(-c2ccccc2)c(-c2ccccc2)[nH]1)C(F)(F)C(Cl)Cl [Example 76],1.5
7,O=S(=O)(c1nc(-c2ccc(Cl)cc2)c(-c2ccc(Cl)cc2)[nH]1)C(F)F [Example 77],0.35
8,O=S(=O)(c1nc(-c2ccc(F)cc2)c(-c2ccc(F)cc2)[nH]1)C(F)F [Example 78],0.1
9,CS(=O)(=O)c1nc(-c2ccc(Cl)cc2)c(-c2ccc(F)cc2)[nH]1 [Example 79],2.8
10,O=S(=O)(c1nc(-c2ccc(Cl)cc2)c(-c2ccc(F)cc2)[nH]1)C(F)(F)C(F)F [Example 80],0.09
11,Cc1ccc(-c2nc(S(=O)(=O)C(F)(F)C(F)F)[nH]c2-c2ccc(C)cc2)cc1 [Example 81],0.35
12,COc1cccc(-c2nc(S(=O)(=O)C(F)(F)C(F)F)[nH]c2-c2cccc(OC)c2)c1 [Example 84],4
13,CS(=O)(=O)c1nc(-c2ccc(Cl)cc2)c(-c2ccccc2)[nH]1 [Example 85],30
14,CS(=O)(=O)c1nc(-c2ccc(F)cc2)c(-c2ccc(C(F)(F)F)cc2)[nH]1 [Example 87],3.7
15,CS(=O)(=O)c1nc(-c2ccc(Cl)cc2)c(-c2ccc(C(F)(F)F)cc2)[nH]1 [Example 88],2.2
16,O=S(=O)(c1nc(-c2ccc(C(F)(F)F)cc2)c(-c2ccccc2)[nH]1)C(F)(F)C(F)F [Example 89],2.4
17,O=S(=O)(c1nc(-c2ccc(Cl)cc2)c(-c2ccc(C(F)(F)F)cc2)[nH]1)C(F)(F)C(F)F [Example 90],1.8
18,O=S(=O)(c1nc(-c2ccccc2Cl)c(-c2ccccc2Cl)[nH]1)C(F)(F)C(F)F [Example 91],0.8
19,"O=S(=O)(c1nc(-c2ccc(F)cc2)c(-c2ccccc2)[nH]1)C(F)(F)C(F)F [Example 92, 4(or 5)-(4-fluorophenyl)-5(or 4)-phenyl-2-(1,1,2,2-tetrafluoroethylsulfonyl)imidazole]",0.027
20,O=S(=O)(c1nc(-c2cccc(Cl)c2)c(-c2cccc(Cl)c2)[nH]1)C(F)(F)C(F)F [Example 93],0.16
21,[O-][S+](c1nc(-c2ccc(Cl)cc2)c(-c2ccc(Cl)cc2)[nH]1)C(F)F (centres unmarked) [Example 94],0.19

# Same assay, conditions: established arthritis, oral, 7 daily doses; ED50% decrease from control paw volume; Tables I-III
row,Structure (SMILES),Adjuvant Arthritis (ED50%) [mg/kg]
1,FC(Cl)C(F)(F)Sc1nc(-c2ccccc2)c(-c2ccccc2)[nH]1 (centres unmarked) [Example 41],3.9
2,"COc1ccc(-c2nc(SC(F)(F)C(F)Br)[nH]c2-c2ccc(OC)cc2)cc1 (centres unmarked) [Example 51, 2-(2-bromo-1,1,2-trifluoroethylthio)-4,5-bis(4-methoxyphenyl)imidazole]",10
3,"FC(Br)C(F)(F)Sc1nc(-c2ccccc2)c(-c2ccccc2)[nH]1 (centres unmarked) [Example 52, 2-(2-bromo-1,1,2-trifluoroethylthio)-4,5-diphenylimidazole]",11

# Same assay, conditions: established arthritis, oral, 7 daily doses; ED50% decrease from control paw volume; Tables I-III; listed as 122
row,Structure (SMILES),Adjuvant Arthritis (ED50%) [mg/kg]
1,CN(C)c1ccc(-c2nc(SC(F)(F)C(F)F)[nH]c2-c2ccccc2)cc1 [Example 53],4.0

# Reference: patent US4190666A, “Anti-inflammatory 4,5-diarly-2-(substituted-thio)imidazoles and their corresponding sulfoxides and sulfones” (E. I. Du Pont de Nemours and Company, priority 1978, dated 1980)
